Source: ChEMBL document CHEMBL4680139, “Antiproliferative activity of diarylnaphthylpyrrolidine derivative via dual target inhibition” (Eur J Med Chem, 2020)
Converted amounts (≈) assume the structure as drawn.

Assays:
[1] = tested on: MDA-MB-231; test: Induction of cell cycle arrest in human MDA-MB-231 cells assessed as accumulation at G2/M phase at 2.6 uM by propidium iodide staining based flow cytometry (reference value: 8.35 +/-0.07%); assay type: functional
[2] = tested on: MCF7; test: Antiproliferative activity against human MCF-7 cells assessed as inhibition of colony formation measured after 3 weeks by crystal violet staining based soft agar colony formation assay; assay type: functional, cell-based
[3] = Toxicity in Swiss albino mouse assessed as body weight at 5 mg/kg, po administered as single dose (reference value: 31.62 +/- 1.64 gms); assay type: organism-based; conditions: in vivo
[4] = tested on: MCF7; test: Induction of apoptosis in human MCF-7 cells assessed as proportion of viable cells at 2.17 uM measured after 24 hrs by Annexin V- FITC/propidium iodide staining based flow cytometry (reference value: 94.6%); assay type: functional
[5] = tested on: MCF7; test: Antiproliferative activity against human MCF-7 cells assessed as proportion of live cells at 12.5 ug/ml measured after 3 weeks by crystal violet staining based soft agar colony formation assay (reference value: 100%); assay type: functional; conditions: dose 12.5 µg/ml
[6] = Toxicity in Swiss albino mouse assessed as albumin level in serum at 50 mg/kg, po administered as single dose (reference value: 0.56 +/-0.02 g/dl); assay type: organism-based; conditions: in vivo
[7] = tested on: MCF7; test: Antiproliferative activity against human MCF-7 cells assessed as proportion of dead cells at 50 ug/ml measured after 3 weeks by crystal violet staining based soft agar colony formation assay; assay type: functional; conditions: dose 50 µg/ml
[8] = Toxicity in Swiss albino mouse assessed as morbidity upto 300 mg/kg, po administered as single dose; assay type: organism-based; conditions: in vivo
[9] = tested on: MCF7; test: Induction of cell cycle arrest in human MCF-7 cells assessed as accumulation at G0/G1 phase at 4.33 uM by propidium iodide staining based flow cytometry (reference value: 74.5%); assay type: functional
[10] = tested on: MDA-MB-231; test: Induction of apoptosis in human MDA-MB-231 cells assessed as proportion of viable cells at 10.42 uM measured after 24 hrs by Annexin V-FITC/propidium iodide staining based flow cytometry (reference value: 99%); assay type: functional
[11] = Toxicity in Swiss albino mouse assessed as SGPT level in serum at 50 mg/kg, po administered as single dose (reference value: 21.81 +/-2.1 U/L); assay type: organism-based; conditions: in vivo
[12] = Toxicity in po dosed Swiss albino mouse administered as single dose; assay type: organism-based; conditions: in vivo
[13] = Toxicity in Swiss albino mouse assessed as SGPT level in serum at 300 mg/kg, po administered as single dose (reference value: 21.81 +/-2.1 U/L); assay type: organism-based; conditions: in vivo
[14] = Toxicity in Swiss albino mouse assessed as ALP level in serum at 300 mg/kg, po administered as single dose (reference value: 195.8 +/-12.06 U/L); assay type: organism-based; conditions: in vivo
[15] = Toxicity in Swiss albino mouse assessed as SGOT level in serum at 5 mg/kg, po administered as single dose (reference value: 22.12 +/-1.91 U/L); assay type: organism-based; conditions: in vivo
[16] = tested on: MCF7; test: Induction of cell cycle arrest in human MCF-7 cells assessed as accumulation at G2/M phase at 4.33 uM by propidium iodide staining based flow cytometry (reference value: 15.2%); assay type: functional
[17] = Toxicity in Swiss albino mouse assessed as cholesterol level in serum at 50 mg/kg, po administered as single dose (reference value: 103.62 +/-7.45 mg/dl); assay type: organism-based; conditions: in vivo
[18] = tested on: MCF7; test: Antiproliferative activity against human MCF-7 cells assessed as proportion of live cells at 6.25 ug/ml measured after 3 weeks by crystal violet staining based soft agar colony formation assay (reference value: 100%); assay type: functional; conditions: dose 6.25 µg/ml
[19] = tested on: MCF7; test: Induction of apoptosis in human MCF-7 cells assessed as proportion of early apoptotic cells at 4.33 uM measured after 24 hrs by Annexin V- FITC/propidium iodide staining based flow cytometry (reference value: 0%); assay type: functional
[20] = tested on: MCF7; test: Induction of cell cycle arrest in human MCF-7 cells assessed as accumulation at G2/M phase at 2.17 uM by propidium iodide staining based flow cytometry (reference value: 15.2%); assay type: functional
[21] = tested on: MCF7; test: Induction of cell cycle arrest in human MCF-7 cells assessed as accumulation at S phase at 4.33 uM by propidium iodide staining based flow cytometry (reference value: 6.9%); assay type: functional
[22] = Toxicity in Swiss albino mouse assessed as body weight at 50 mg/kg, po administered as single dose (reference value: 31.62 +/- 1.64 gms); assay type: organism-based; conditions: in vivo
[23] = tested on: MDA-MB-231; test: Induction of apoptosis in human MDA-MB-231 cells at 2.6 uM by propidium iodide staining based flow cytometry (reference value: 2.6 +/- 0.28%); assay type: functional
[24] = tested on: MCF7; test: Induction of apoptosis in human MCF-7 cells at 4.33 uM by propidium iodide staining based flow cytometry (reference value: 2.1%); assay type: functional
[25] = tested on: MCF7; test: Induction of apoptosis in human MCF-7 cells assessed as proportion of viable cells at 8.66 uM measured after 24 hrs by Annexin V- FITC/propidium iodide staining based flow cytometry (reference value: 94.6%); assay type: functional
[26] = Toxicity in Swiss albino mouse assessed as haemoglobin level in blood at 300 mg/kg, po administered as single dose (reference value: 12.05 +/-0.88 gm/dl); assay type: organism-based; conditions: in vivo
[27] = Toxicity in Swiss albino mouse assessed as serum protein level at 5 mg/kg, po administered as single dose (reference value: 2.83 +/-0.09 mg/ml); assay type: organism-based; conditions: in vivo
[28] = Toxicity in Swiss albino mouse assessed as serum protein level at 50 mg/kg, po administered as single dose (reference value: 2.83 +/-0.09 mg/ml); assay type: organism-based; conditions: in vivo
[29] = Toxicity in Swiss albino mouse assessed as absolute and relative kidney weight at 5 to 300 mg/kg, po administered as single dose; assay type: organism-based; conditions: in vivo, dose 5-300 mg/kg
[30] = Toxicity in Swiss albino mouse assessed as albumin level in serum at 5 mg/kg, po administered as single dose (reference value: 0.56 +/-0.02 g/dl); assay type: organism-based; conditions: in vivo
[31] = target: DNA topoisomerase 2-alpha (Homo sapiens) (UniProt P11388); test: Inhibition of DNA-topoisomerase 2 in human MCF7 cells using kinetoplast DNA as substrate at 17.32 uM measured by ELISA; assay type: cell-based
Chain of DNA topoisomerase 2-alpha (Homo sapiens) (P11388 whole entry): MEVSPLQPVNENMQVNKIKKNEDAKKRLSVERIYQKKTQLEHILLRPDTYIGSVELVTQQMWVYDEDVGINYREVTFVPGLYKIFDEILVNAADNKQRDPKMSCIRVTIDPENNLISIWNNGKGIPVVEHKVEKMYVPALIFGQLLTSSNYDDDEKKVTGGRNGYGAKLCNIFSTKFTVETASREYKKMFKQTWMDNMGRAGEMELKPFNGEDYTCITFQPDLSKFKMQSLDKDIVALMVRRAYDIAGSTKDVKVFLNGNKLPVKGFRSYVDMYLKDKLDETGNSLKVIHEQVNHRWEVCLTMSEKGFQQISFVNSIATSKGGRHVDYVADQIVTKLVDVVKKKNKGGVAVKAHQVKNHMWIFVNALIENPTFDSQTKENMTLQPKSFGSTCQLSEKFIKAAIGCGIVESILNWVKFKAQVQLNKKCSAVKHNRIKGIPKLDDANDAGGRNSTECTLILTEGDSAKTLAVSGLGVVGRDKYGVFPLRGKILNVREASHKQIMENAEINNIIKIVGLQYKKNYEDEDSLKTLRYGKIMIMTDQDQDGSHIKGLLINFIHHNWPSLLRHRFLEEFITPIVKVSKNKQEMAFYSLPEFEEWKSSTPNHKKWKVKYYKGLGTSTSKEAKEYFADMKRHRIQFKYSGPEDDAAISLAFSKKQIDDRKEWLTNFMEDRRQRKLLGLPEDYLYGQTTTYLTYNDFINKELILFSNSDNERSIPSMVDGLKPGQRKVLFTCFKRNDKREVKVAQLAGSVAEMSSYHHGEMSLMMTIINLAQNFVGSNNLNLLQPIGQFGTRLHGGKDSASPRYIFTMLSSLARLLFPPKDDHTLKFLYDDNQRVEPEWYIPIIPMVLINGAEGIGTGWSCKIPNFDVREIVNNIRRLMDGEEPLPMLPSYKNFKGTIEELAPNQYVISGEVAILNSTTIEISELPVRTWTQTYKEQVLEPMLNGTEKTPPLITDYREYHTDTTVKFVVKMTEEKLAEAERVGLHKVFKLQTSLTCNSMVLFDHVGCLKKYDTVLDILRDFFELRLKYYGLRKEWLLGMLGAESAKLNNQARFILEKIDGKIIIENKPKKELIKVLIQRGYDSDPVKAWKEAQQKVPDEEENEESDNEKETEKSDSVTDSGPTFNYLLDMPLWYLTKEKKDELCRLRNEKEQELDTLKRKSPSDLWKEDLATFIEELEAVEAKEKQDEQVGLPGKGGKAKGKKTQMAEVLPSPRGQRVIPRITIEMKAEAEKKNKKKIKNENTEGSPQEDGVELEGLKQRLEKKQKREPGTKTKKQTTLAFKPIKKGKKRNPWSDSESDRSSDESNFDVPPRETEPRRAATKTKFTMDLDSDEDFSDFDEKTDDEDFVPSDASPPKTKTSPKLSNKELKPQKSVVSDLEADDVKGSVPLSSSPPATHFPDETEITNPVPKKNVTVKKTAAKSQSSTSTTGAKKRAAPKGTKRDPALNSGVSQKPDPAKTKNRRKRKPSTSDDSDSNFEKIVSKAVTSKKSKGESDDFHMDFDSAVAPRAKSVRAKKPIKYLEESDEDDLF

[32] = Toxicity in Swiss albino mouse assessed as creatinine level in serum at 50 mg/kg, po administered as single dose (reference value: 0.27+/-0.02 mg/dl); assay type: organism-based; conditions: in vivo
[33] = tested on: MCF7; test: Induction of apoptosis in human MCF-7 cells assessed as proportion of late apoptotic cells at 2.17 uM measured after 24 hrs by Annexin V- FITC/propidium iodide staining based flow cytometry (reference value: 0.1%); assay type: functional
[34] = tested on: MDA-MB-231; test: Antiproliferative activity against human MDA-MB-231 cells assessed as inhibition of cell growth measured after 48 hrs by SRB assay; assay type: functional, cell-based; conditions: MDA-MB-231, 48 h, read-out: IC50
[35] = tested on: MCF7; test: Induction of cell cycle arrest in human MCF-7 cells assessed as accumulation at S phase at 8.66 uM by propidium iodide staining based flow cytometry (reference value: 6.9%); assay type: functional

COc1ccc(C(c2ccccc2OCCN2CCCC2)c2cccc3ccccc23)c(OC)c1OC (stereo unspecified)
Activity [1]: 10.35%
inhibition [2]: Dose-dependent effect
IC50 ([2]; MCF7, 504 h): 11.2 µg/mL (≈ 22.6 µM)
Activity [3]: 30.58 g
Activity [4]: 77.8%
Activity [5]: 47.2%
Activity [6]: 0.57 g/dL
Activity [7]: 87.02%
Activity [8]: Non-Toxic
Activity [9]: 67.4%
Activity [10]: 49.4%
Activity [11]: 19.12 U/L
MTD [12]: ≤ 300 mg/kg
Activity [13]: 22.34 U/L
Activity [14]: 137.7 U/L
Activity [15]: 27.32 U/L
Activity [16]: 13.4%
Activity [17]: 100.11 mg/dL
Activity [18]: 70.77%
Activity [19]: 0%
Activity [20]: 12.1%
Activity [21]: 13.9%
Activity [22]: 30.44 g
Activity [23]: 2.7%
Activity [24]: 4.7%
Activity [25]: 61.8%
Activity [26]: 10.13 g/dL
Activity [27]: 2.27 mg/mL
Activity [28]: 2.52 mg/mL
Activity [29]: Non-Toxic
Activity [30]: 0.65 g/dL
inhibition [31]: 25.9%
Activity [32]: 0.34 mg/dL
Activity [33]: 16.5%
IC50 [34]: 5.21 µM
Activity [35]: 9.2%
